Common to all, as to test: NCI anticancer screen, dose series, 48 h
Test [1] concerns HOP-62 NSCLC.
In test [2] the test system is HT29 colon.
In test [3] the test system is LOX IMVI melanoma.
In test [4] the test system is MALME-3M melanoma.
In test [5] the test system is NCI-H226 lung.
The test system of test [6] is OVCAR-3 ovarian.
For test [7], the system named is OVCAR-5 ovarian.
Test [8] deals with RXF 393 renal.
Test [9] relates to SF-295 CNS.
The test system of test [10] is SF-539 CNS.
The subject of test [11] is SK-MEL-2 melanoma.

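Assay format: 96-well plates, 48-hour exposure. GI50 is the concentration that inhibits growth by half. At the TGI there is no net growth.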 Where only a bound is given, the exact number is not on record here.

As to `Cc1ccc(S(=O)(=O)Nc2cccc3c(=O)[nH]cnc23)cc1`, the TGI in test [1], in [2], in [3], in test [4], in test [5] and in test [6] was over 100 µM throughout. Also, the TGI in [7], in [8], in test [9], in [10] and in test [11] was over 100 µM in each case.
Turning to `CN(C)CCNC(=O)c1cccc2c(=O)c3ccccc3oc12`, the TGI in test [1] is 97.5 µM; in test [2], 98.7 µM; in [3], 43.4 µM; in test [4], 64.3 µM; in test [5] it was 76.5 µM; in test [6], over 100 µM. In addition, the TGI in test [7] was over 82.9 µM; in test [8], over 100 µM; in test [9], 98.9 µM; in test [10], over 100 µM; in [11], 98.9 µM.
`COC1OC(CS(=O)(=O)O)C(O)C(O)C1O` (centres undefined): the TGI in test [1], in test [2], in test [3], in [4], in test [5] and in test [6] was over 100 µM throughout. Besides, the TGI in [7], in test [8], in test [9] and in test [11] was over 100 µM throughout.
`O=C1C=C(C2OC(CO)C(O)C2O)C(=O)N1` (centres undefined): the TGI in [1], in [2], in [3], in test [4], in test [5] and in test [6] was over 100 µM throughout. Further, the TGI in test [7], in [8], in test [9], in test [10] and in test [11] was over 100 µM in each case.
Consider `C=C1C(=O)OC2/C=C(\C(=O)O)CC/C=C(\C)CC(OC(=O)/C=C(\C)CC)C12` (centres undefined), for which the TGI in test [1] came to 34.5 µM; in [2], 30.1 µM; in test [3], 29.3 µM; in test [4], 32.7 µM; in test [5], 32.9 µM; in test [6], 30.8 µM. Besides, the TGI in test [7] was determined as 26.6 µM; in [8] it was 27.5 µM; in test [9] it was 31.3 µM; in test [10], 29.9 µM; in test [11] it was 28.7 µM.
Consider `O=C(c1ccccc1)c1ccc2n[se]nc2c1`, for which the TGI in [2] was over 100 µM; in test [3] it was over 100 µM; in test [4] it was over 100 µM; in test [7], over 100 µM; in test [8] it was over 100 µM; in [9], 37 µM. Further, the TGI in test [10] is 43 µM; in test [11], over 100 µM.
On to `CC1(C)[C@@H]2CC[C@]1(C)[C@H](OC(=O)CSC#N)C2`, for which the TGI in [1], in test [2], in test [3], in test [4], in [5] and in test [6] was over 100 µM each time. Also, the TGI in test [7] was over 100 µM; in [8], over 100 µM; in [9] it was over 100 µM; in test [10], 67.9 µM; in [11] it was over 100 µM.
On to `CC1=C2C(O)C(C(C)C(=O)N(C)C)CCC2(C)C=CC1=O` (centres undefined), for which the TGI in test [1], in [2], in [3], in test [5], in test [6] and in [7] was over 100 µM in each case. In addition, the TGI in test [8], in [9], in [10] and in test [11] was over 100 µM in each case.
For `CC(=O)C(C(c1ccccc1)N1CCOCC1)N1CCOCC1` (centres undefined), the TGI in test [1], in test [2], in [3], in test [4], in test [5] and in [6] was over 100 µM each time. Further, the TGI in test [7], in test [8], in [9], in [10] and in test [11] was over 100 µM in each case.
Consider `CCCC(C)c1ccc(OCCCCCCN2CCNCC2)cc1` (centres undefined), for which the GI50 in test [1] is 4.55 µM; in test [2], 1.66 µM; in [4] it was 1.93 µM; in [5], 9.26 µM; in test [6], 1.78 µM; in [7], 2.73 µM. The GI50 in test [8] was 1.55 µM; in test [9] it was 1.82 µM; in test [10] it was 1.71 µM. Also, the TGI was 24.1 µM in test [1]; 3.74 µM in [2]; 3.75 µM in [4]; 35.8 µM in test [5]; 3.87 µM in test [6]; 7.9 µM in [7]. Further, the results for the TGI in test [8], in test [9] and in [10] were 3 µM, 3.44 µM and 3.46 µM, respectively.
Consider `CCOP(=Nc1ccc(N(C)C)cc1)(OCC)OCC`, for which the TGI in [1], in [4], in test [6], in test [7], in test [8] and in [9] was over 100 µM each time. This compound also displayed a TGI in test [11] of over 100 µM.

Values taken from PubChem BioAssay (NCI).
